Results as given in US20090221653A1, “7-(2-amino-1-hydroxy-ethyl)-4-hydroxybenzothiazol-2(3H)-one-derivatives as beta2 adrenoreceptor agonists” (AstraZeneca AB, priority 2005, published 2009).
Structures can show the parent of a compound that is named as a salt.

Legend:
β2 receptor = target: T1, β2 receptor (Homo sapiens, UniProt P07550); experiment: Adrenergic β2 mediated cAMP production in H292 cells (AlphaScreen cAMP detection); assay type: cell-based; conditions: for EC50: cAMP, test compounds incubated 10 minutes, 300 μM rolipram; for Intrinsic Activity: fraction relative to the maximum activity determined for formoterol, 10 minutes incubation
T1 construct: endogenous in cells; host or cells: H292 cells
Method: H292 cells were grown in RPMI (Roswell Park Memorial Institute) medium containing, 10% (v/v) FBS (foetal bovine serum) and 2 mM L-glutamine. Cells were grown in 225 cm2 flasks containing 25 mL media in a humidified incubator at 37° C., 5% CO2. Cells were harvested from the flask and passaged at a 1 in 10 dilution once per week.
The media from flasks containing H292 cells was removed, rinsed with 10 mL PBS (phosphate buffered saline) and replaced with 10 mL Accutase™ cell detachment solution. Flasks were incubated for 15 minutes in a humidified incubator at 37° C., 5% CO2. The cell suspension was counted and the cells re-suspended in RPMI media (containing 10% (v/v) FBS and 2 mM L-glutamine) at 0.05×10^6 cells per mL. 5000 cells in 100 μL were added to each well of a tissue-culture-treated 96-well plate and the cells incubated overnight in a humidified incubator at 37° C., 5% CO2. The culture media was removed, washed twice with 100 μL assay buffer and replaced with 50 μL assay buffer. Cells were rested at room temperature for 20 minutes after which time 25 μL of rolipram (1.2 mM made up in assay buffer containing 2.4% (v/v) dimethylsulphoxide) was added. Cells were incubated with rolipram for 10 minutes after which time test compounds (made up as ×4 concentrated stocks in assay buffer containing 4% (v/v) dimethylsulphoxide) were added and the cells were incubated for 10 minutes at room temperature. Final rolipram concentration in the assay was 300 μM and final vehicle concentration was 1.6% (v/v) dimethylsulphoxide. The reaction was stopped by removing supernatants, washing once with 100 μL assay buffer and replacing with 50 μL lysis buffer. The cell monolayer was frozen at −80° C. for 30 minutes (or overnight).
The concentration of cAMP (cyclic adenosine monophosphate) in the cell lysate was determined using the AlphaScreen™ methodology. The frozen cell plate was thawed for 20 minutes on a plate shaker then 10 μL of the cell lysate was transferred to a 96-well white plate. 40 μL of mixed AlphaScreen™ detection beads (containing equal volumes of donor beads (pre-incubated with biotinylated cAMP in the dark for 30 minutes) and acceptor beads), was added to each well and the plate incubated at room temperature for 10 hours in the dark. The AlphaScreen™ signal was measured using an EnVision spectrophotometer (Perkin-Elmer Inc.) with the recommended manufacturer's settings. cAMP concentrations were determined by reference to a calibration curve determined in the same experiment using standard cAMP concentrations (made up in lysis buffer in a 96-well tissue-culture-treated plate and frozen/thawed alongside the test samples) and detected using the same protocol. Concentration response curves for agonists were constructed to determine both the pEC50 and Intrinsic Activity.

[1] = target: T2, recombinant human α1D receptor (Homo sapiens, UniProt P25100); experiment: Adrenergic α1D selectivity assay, inhibition of [3H]-prazosin binding; conditions: HEK293 membranes, [3H]-prazosin 0.3 nM; read-out: α1 bind pIC50 (converted)
T2 construct: expressed in transfected cells; host or cells: HEK293
T2 sequence (P25100 1-572): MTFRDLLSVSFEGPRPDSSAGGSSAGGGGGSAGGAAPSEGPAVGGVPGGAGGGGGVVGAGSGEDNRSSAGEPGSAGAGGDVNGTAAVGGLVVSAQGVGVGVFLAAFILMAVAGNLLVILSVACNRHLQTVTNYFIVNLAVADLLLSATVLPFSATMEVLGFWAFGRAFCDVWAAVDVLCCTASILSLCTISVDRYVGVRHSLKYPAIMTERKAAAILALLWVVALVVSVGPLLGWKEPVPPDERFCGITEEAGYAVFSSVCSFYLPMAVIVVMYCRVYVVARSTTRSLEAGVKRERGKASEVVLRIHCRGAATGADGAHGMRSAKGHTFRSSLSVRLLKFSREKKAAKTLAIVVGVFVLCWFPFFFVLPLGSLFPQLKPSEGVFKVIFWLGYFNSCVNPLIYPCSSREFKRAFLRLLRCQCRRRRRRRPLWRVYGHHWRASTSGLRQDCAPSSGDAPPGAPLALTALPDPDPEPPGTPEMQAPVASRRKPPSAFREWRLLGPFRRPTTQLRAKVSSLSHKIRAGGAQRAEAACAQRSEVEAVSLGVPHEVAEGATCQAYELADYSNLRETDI
Method: Membranes were prepared from human embryonic kidney 293 (HEK293) cells expressing recombinant human α1D receptor. These were diluted in Assay Buffer (50 mM HEPES, 1 mM EDTA, 0.1% gelatin, pH 7.4) to provide a final concentration of membranes that gave a clear window between maximum and minimum specific binding.
Assays were performed in U-bottomed 96-well polypropylene plates. 10 μL [^3H]-prazosin (0.3 nM final concentration) and 10 μL of test compound (10× final concentration) were added to each test well. For each assay plate 8 replicates were obtained for [^3H]-prazosin binding in the presence of 10 μL vehicle (10% (v/v) DMSO in Assay Buffer; defining maximum binding) or 10 μL BMY7378 (10 μM final concentration; defining non-specific binding (NSB)). Membranes were then added to achieve a final volume of 100 μL. The plates were incubated for 2 hours at room temperature and then filtered onto PEI coated GF/B filter plates, pre-soaked for 1 hour in Assay Buffer, using a 96-well plate Tomtec cell harvester. Five washes with 250 μL wash buffer (50 mM HEPES, 1 mM EDTA, pH 7.4) were performed at 4° C. to remove unbound radioactivity. The plates were dried then sealed from underneath using Packard plate sealers and MicroScint-O (50 μL) was added to each well. The plates were sealed (TopSeal A) and filter-bound radioactivity was measured with a scintillation counter (TopCount, Packard BioScience) using a 3-minute counting protocol.
Total specific binding (B0) was determined by subtracting the mean NSB from the mean maximum binding. NSB values were also subtracted from values from all other wells.

T1 sequence (P07550 whole entry): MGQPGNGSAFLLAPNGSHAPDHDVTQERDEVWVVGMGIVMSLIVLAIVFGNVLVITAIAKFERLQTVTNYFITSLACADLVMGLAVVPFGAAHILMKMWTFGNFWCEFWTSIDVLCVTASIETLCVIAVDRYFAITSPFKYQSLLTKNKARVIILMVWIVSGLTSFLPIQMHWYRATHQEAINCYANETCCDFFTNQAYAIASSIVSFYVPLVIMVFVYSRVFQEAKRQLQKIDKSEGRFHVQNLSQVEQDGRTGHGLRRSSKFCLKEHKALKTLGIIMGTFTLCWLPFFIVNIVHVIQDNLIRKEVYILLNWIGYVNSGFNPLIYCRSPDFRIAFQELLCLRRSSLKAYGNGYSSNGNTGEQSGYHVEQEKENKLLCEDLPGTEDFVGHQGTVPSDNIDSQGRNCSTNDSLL

| Compound | EC50 (β2 receptor) [nM] | Intrinsic Activity (β2 receptor) | IC50 [1] [nM] |
| --- | --- | --- | --- |
| O=c1[nH]c2c(O)ccc([C@@H](O)CNCCCS(=O)(=O)CCOCCc3cccc4ccccc34)c2s1 [Example 2, 4-Hydroxy-7-((1R)-1-hydroxy-2-{[3-({2-[2-(1-naphthyl)ethoxy]ethyl}sulfonyl)propyl]-amino}ethyl)-1,3-benzothiazol-2(3H)-one trifluoroacetate] | 0.158 | 1.0 | 1000 |
| Cl.O=c1[nH]c2c(O)ccc([C@@H](O)CNCCSCCOCCc3cccc4ccccc34)c2s1 [Example 4, 4-Hydroxy-7-((1R)-1-hydroxy-2-{[2-({2-[2-(1-naphthyl)ethoxy]ethyl}thio)ethyl]-amino}ethyl)-1,3-benzothiazol-2(3H)-one hydrochloride] | 0.1 | 0.9 | 200 |
